Experimental data published in the kinase profiling compilation of Christmann-Franck et al. (2016).

How the values were obtained:
Experiment in all cases: radiometric filter-binding kinase assay, Kinase HotSpot
Conditions in all cases: compound 0.5 µM; ATP 10 µM
AKT3 (human) = AKT3 (human) (UniProt Q9Y243)
DYRK3 (human) = DYRK3 (human) (UniProt O43781)
EPHB1 (human) = EPHB1 (human) (UniProt P54762)
PRKCI (human) = PRKCI (human) (UniProt P41743)
STK16 (human) = STK16 (human) (UniProt O75716)
STK17A (human) = STK17A (human) (UniProt Q9UEE5)
PAK6 (human) = PAK6 (human) (UniProt Q9NQU5)
Sequence of PAK6 (human) (Q9NQU5 whole entry, looked up): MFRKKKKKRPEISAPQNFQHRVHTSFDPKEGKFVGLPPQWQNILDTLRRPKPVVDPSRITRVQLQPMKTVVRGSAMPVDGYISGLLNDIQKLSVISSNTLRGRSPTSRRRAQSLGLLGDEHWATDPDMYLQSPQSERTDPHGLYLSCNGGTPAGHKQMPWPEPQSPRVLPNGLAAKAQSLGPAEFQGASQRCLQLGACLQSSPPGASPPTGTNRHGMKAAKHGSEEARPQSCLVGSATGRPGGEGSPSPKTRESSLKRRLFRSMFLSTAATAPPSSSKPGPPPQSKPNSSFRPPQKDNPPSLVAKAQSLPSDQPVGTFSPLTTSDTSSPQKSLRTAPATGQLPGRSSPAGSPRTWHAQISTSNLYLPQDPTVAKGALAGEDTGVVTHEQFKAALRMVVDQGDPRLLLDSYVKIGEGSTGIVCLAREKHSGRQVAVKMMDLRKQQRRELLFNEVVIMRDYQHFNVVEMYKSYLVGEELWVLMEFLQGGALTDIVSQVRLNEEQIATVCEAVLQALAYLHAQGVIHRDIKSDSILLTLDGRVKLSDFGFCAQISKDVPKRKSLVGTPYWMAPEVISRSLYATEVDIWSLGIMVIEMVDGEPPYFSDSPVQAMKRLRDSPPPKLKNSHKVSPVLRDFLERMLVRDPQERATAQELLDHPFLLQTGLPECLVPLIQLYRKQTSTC

MAP3K10 (human) = MAP3K10 (human) (UniProt Q02779)
SRC (human) = SRC (human) (UniProt P12931)
MAP2K2 (human) = MAP2K2 (human) (UniProt P36507)
MAPK11 (human) = MAPK11 (human) (UniProt Q15759)
LTK (human) = LTK (human) (UniProt P29376)
DDR2 (human) = DDR2 (human) (UniProt Q16832)
CAMK1 (human) = CAMK1 (human) (UniProt Q14012)
Sequence of CAMK1 (human) (Q14012 whole entry, looked up): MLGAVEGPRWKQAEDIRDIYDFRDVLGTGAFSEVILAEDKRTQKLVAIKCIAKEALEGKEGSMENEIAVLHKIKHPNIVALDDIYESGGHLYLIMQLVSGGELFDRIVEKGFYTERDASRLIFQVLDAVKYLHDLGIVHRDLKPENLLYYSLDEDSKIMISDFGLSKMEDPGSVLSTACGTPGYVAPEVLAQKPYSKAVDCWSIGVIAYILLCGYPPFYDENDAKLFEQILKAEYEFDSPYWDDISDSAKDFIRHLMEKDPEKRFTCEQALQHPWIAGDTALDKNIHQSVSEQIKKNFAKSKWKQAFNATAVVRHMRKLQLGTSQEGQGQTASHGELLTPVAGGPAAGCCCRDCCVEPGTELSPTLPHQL

MAP2K1 (human) = MAP2K1 (human) (UniProt Q02750)
Sequence of MAP2K1 (human) (Q02750 whole entry, looked up): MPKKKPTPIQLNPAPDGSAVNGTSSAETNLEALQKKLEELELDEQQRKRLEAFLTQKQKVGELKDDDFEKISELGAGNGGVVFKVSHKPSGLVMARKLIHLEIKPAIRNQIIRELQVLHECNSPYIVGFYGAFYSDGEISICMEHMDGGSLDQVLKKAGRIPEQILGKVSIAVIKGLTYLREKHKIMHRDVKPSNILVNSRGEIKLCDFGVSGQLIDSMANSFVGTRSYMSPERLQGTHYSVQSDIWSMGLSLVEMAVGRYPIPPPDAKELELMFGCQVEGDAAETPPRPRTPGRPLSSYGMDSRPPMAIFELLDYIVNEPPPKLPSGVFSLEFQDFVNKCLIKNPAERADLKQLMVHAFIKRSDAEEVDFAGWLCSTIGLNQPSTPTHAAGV

MUSK (human) = MUSK (human) (UniProt O15146)
CSNK1E (human) = CSNK1E (human) (UniProt P49674)
ALK (human) = ALK (human) (UniProt Q9UM73)
TSSK1B (human) = TSSK1B (human) (UniProt Q9BXA7)
RPS6KB1 (human) = RPS6KB1 (human) (UniProt P23443)
PLK2 (human) = PLK2 (human) (UniProt Q9NYY3)
PTK2B (human) = PTK2B (human) (UniProt Q14289)
[1] = system: MAP2K6 (human), P52564 [S207E/T211E]
OXSR1 (human) = OXSR1 (human) (UniProt O95747)
HIPK1 (human) = HIPK1 (human) (UniProt Q86Z02)
PRKD3 (human) = PRKD3 (human) (UniProt O94806)
ADRBK1 (human) = ADRBK1 (human) (UniProt P25098)
STK4 (human) = STK4 (human) (UniProt Q13043)
CSNK1G1 (human) = CSNK1G1 (human) (UniProt Q9HCP0)
PAK3 (human) = PAK3 (human) (UniProt O75914)
IKBKE (human) = IKBKE (human) (UniProt Q14164)
MAP3K8 (human) = MAP3K8 (human) (UniProt P41279)
IRAK4 (human) = IRAK4 (human) (UniProt Q9NWZ3)
Sequence of IRAK4 (human) (Q9NWZ3 whole entry, looked up): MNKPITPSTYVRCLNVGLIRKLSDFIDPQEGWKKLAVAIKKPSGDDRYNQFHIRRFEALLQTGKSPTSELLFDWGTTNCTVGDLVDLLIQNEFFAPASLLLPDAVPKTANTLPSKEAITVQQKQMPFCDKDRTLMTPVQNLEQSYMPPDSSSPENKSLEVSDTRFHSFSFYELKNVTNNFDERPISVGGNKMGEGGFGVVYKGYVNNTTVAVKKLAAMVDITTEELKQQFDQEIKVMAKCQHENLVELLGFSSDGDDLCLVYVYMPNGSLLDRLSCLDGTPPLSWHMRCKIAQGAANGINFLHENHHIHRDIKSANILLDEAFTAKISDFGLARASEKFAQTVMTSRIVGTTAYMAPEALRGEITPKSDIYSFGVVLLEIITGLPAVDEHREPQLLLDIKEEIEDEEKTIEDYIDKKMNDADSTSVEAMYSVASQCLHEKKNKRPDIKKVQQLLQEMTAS

ROCK2 (human) = ROCK2 (human) (UniProt O75116)
ROCK1 (human) = ROCK1 (human) (UniProt Q13464)
Sequence of ROCK1 (human) (Q13464 whole entry, looked up): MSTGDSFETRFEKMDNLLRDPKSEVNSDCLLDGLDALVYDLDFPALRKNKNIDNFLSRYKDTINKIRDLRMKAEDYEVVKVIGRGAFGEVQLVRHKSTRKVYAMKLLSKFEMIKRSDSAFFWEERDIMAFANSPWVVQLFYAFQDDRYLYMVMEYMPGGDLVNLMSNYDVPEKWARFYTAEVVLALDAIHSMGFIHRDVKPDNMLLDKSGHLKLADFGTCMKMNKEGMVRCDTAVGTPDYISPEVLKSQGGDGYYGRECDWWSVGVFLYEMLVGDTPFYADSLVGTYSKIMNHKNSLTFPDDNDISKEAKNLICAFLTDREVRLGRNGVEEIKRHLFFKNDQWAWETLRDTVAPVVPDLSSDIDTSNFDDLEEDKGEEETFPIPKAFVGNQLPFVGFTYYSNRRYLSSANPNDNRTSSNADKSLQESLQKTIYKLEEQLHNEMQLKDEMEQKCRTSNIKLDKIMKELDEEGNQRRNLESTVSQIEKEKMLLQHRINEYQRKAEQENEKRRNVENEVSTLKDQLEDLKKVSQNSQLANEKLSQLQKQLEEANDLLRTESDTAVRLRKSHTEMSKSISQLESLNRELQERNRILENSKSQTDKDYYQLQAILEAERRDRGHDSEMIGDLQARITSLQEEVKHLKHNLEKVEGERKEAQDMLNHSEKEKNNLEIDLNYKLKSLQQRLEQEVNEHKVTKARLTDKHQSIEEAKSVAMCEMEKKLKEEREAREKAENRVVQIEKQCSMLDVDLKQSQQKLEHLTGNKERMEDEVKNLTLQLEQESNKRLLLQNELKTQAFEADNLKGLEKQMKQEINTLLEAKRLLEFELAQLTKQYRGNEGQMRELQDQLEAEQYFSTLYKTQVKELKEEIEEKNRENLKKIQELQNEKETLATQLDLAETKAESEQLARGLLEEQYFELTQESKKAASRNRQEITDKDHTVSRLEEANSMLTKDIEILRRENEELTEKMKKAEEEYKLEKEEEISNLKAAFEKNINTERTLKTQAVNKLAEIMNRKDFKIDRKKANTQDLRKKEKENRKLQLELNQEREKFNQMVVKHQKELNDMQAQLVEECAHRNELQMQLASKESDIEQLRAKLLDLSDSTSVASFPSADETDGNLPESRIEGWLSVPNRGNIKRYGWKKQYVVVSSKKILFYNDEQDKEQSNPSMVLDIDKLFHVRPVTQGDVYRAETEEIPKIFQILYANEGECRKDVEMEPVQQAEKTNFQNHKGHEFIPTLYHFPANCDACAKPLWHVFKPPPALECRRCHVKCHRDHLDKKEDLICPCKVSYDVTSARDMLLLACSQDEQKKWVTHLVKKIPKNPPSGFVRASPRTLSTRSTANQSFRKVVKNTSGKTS

CHEK1 (human) = CHEK1 (human) (UniProt O14757)
CDK4 CCND1 (human) = CDK4 CCND1 (human) (UniProt P24385+P11802)
SIK2 (human) = SIK2 (human) (UniProt Q9H0K1)
CLK2 (human) = CLK2 (human) (UniProt P49760)
BLK (human) = BLK (human) (UniProt P51451)
MAP3K14 (human) = MAP3K14 (human) (UniProt Q99558)
BRSK2 (human) = BRSK2 (human) (UniProt Q8IWQ3)

Sequence of STK16 (human) (O75716 whole entry, looked up): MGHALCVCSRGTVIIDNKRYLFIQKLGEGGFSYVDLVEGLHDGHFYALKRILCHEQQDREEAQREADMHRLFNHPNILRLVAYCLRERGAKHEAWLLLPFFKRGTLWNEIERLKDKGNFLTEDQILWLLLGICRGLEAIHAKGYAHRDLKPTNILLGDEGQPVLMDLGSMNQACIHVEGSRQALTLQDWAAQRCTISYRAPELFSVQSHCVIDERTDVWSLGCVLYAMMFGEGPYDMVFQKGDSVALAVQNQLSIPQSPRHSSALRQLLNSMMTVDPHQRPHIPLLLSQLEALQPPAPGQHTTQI
Sequence of EPHB1 (human) (P54762 whole entry, looked up): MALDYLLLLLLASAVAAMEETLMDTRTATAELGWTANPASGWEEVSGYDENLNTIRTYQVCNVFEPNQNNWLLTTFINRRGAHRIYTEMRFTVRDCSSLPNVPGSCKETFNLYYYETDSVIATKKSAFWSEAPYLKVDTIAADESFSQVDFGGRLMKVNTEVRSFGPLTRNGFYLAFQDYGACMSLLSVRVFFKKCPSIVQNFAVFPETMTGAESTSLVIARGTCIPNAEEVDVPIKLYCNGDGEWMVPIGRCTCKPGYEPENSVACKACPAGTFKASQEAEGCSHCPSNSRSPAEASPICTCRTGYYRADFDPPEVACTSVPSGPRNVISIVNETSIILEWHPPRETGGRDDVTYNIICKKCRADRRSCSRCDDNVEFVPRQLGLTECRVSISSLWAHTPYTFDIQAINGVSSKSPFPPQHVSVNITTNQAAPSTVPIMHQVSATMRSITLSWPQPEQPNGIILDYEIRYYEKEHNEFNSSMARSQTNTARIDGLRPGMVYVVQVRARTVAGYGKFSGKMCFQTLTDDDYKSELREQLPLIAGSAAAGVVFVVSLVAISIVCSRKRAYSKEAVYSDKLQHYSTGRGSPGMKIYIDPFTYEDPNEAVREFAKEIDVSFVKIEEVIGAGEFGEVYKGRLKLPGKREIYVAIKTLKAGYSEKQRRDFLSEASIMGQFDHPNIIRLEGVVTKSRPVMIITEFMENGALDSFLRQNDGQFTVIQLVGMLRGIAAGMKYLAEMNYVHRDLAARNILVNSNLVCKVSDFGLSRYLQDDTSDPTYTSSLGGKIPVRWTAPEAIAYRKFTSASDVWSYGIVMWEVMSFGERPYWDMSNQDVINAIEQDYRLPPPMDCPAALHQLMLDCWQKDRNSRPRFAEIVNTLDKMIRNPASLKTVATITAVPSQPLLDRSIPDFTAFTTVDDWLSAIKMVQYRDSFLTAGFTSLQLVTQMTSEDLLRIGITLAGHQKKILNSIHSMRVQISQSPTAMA
Sequence of AKT3 (human) (Q9Y243 whole entry, looked up): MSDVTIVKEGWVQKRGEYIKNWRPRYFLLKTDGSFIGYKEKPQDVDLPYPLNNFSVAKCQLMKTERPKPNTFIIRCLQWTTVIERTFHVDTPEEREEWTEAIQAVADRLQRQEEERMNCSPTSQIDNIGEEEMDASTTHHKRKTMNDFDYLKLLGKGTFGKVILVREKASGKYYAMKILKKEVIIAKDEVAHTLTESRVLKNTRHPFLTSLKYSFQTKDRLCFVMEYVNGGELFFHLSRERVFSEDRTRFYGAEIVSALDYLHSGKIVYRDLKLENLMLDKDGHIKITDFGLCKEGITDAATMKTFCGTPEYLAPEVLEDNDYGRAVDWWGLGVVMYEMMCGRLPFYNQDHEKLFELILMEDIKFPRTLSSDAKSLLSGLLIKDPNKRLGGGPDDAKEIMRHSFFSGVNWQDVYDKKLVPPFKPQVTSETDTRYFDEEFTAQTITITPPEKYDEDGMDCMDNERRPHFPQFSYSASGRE

Cc1cccc(-c2nc(C(C)(C)C)[nH]c2-c2ccc3c(c2)OCO3)n1
residual activity (AKT3 (human)): 94.7%
residual activity (DYRK3 (human)): 102%
residual activity (EPHB1 (human)): 95.5%
residual activity (PRKCI (human)): 92.8%
residual activity (STK16 (human)): 90.1%
residual activity (STK17A (human)): 84.1%
residual activity (PAK6 (human)): 103%
residual activity (MAP3K10 (human)): 99.3%
residual activity (SRC (human)): 96%
residual activity (MAP2K2 (human)): 108%
residual activity (MAPK11 (human)): 93%
residual activity (LTK (human)): 99.2%
residual activity (DDR2 (human)): 98.3%
residual activity (CAMK1 (human)): 99.8%
residual activity (MAP2K1 (human)): 93.3%
residual activity (MUSK (human)): 99.1%
residual activity (CSNK1E (human)): 71.5%
residual activity (ALK (human)): 103%
residual activity (TSSK1B (human)): 103%
residual activity (RPS6KB1 (human)): 95.9%
residual activity (PLK2 (human)): 92.1%
residual activity (PTK2B (human)): 91.3%
residual activity [1]: 105%
residual activity (OXSR1 (human)): 103%
residual activity (HIPK1 (human)): 101%
residual activity (PRKD3 (human)): 89.3%
residual activity (ADRBK1 (human)): 105%
residual activity (STK4 (human)): 98.7%
residual activity (CSNK1G1 (human)): 79.4%
residual activity (PAK3 (human)): 95.9%
residual activity (IKBKE (human)): 91.8%
residual activity (MAP3K8 (human)): 94.5%
residual activity (IRAK4 (human)): 86.8%
residual activity (ROCK2 (human)): 104%
residual activity (ROCK1 (human)): 101%
residual activity (CHEK1 (human)): 89.8%
residual activity (CDK4 CCND1 (human)): 105%
residual activity (SIK2 (human)): 91.4%
residual activity (CLK2 (human)): 95.2%
residual activity (BLK (human)): 98.5%
residual activity (MAP3K14 (human)): 109%
residual activity (BRSK2 (human)): 99.3%

Ic1cccc(CSc2nnc(-c3ccncc3)o2)c1
residual activity (AKT3 (human)): 90.7%
residual activity (DYRK3 (human)): 108%
residual activity (EPHB1 (human)): 101%
residual activity (PRKCI (human)): 96.4%
residual activity (STK16 (human)): 110%
residual activity (STK17A (human)): 95.8%
residual activity (PAK6 (human)): 74%
residual activity (MAP3K10 (human)): 102%
residual activity (SRC (human)): 101%
residual activity (MAP2K2 (human)): 102%
residual activity (MAPK11 (human)): 96.9%
residual activity (LTK (human)): 103%
residual activity (DDR2 (human)): 103%
residual activity (CAMK1 (human)): 102%
residual activity (MAP2K1 (human)): 95.4%
residual activity (MUSK (human)): 94.1%
residual activity (CSNK1E (human)): 94.3%
residual activity (ALK (human)): 101%
residual activity (TSSK1B (human)): 97.6%
residual activity (RPS6KB1 (human)): 100%
residual activity (PLK2 (human)): 101%
residual activity (PTK2B (human)): 92.1%
residual activity [1]: 97%
residual activity (OXSR1 (human)): 105%
residual activity (HIPK1 (human)): 105%
residual activity (PRKD3 (human)): 98.4%
residual activity (ADRBK1 (human)): 99.9%
residual activity (STK4 (human)): 102%
residual activity (CSNK1G1 (human)): 91.7%
residual activity (PAK3 (human)): 92.9%
residual activity (IKBKE (human)): 102%
residual activity (MAP3K8 (human)): 96.1%
residual activity (IRAK4 (human)): 105%
residual activity (ROCK2 (human)): 89%
residual activity (ROCK1 (human)): 88%
residual activity (CHEK1 (human)): 96.3%
residual activity (CDK4 CCND1 (human)): 96.3%
residual activity (SIK2 (human)): 100%
residual activity (CLK2 (human)): 104%
residual activity (BLK (human)): 103%
residual activity (MAP3K14 (human)): 88.3%
residual activity (BRSK2 (human)): 99.3%

CCCCc1c(-c2ccc(OC)cc2)[nH]c2nccnc12
residual activity (AKT3 (human)): 102%
residual activity (DYRK3 (human)): 96.1%
residual activity (EPHB1 (human)): 76%
residual activity (PRKCI (human)): 72.8%
residual activity (STK16 (human)): 58.7%
residual activity (STK17A (human)): 95.5%
residual activity (PAK6 (human)): 96.8%
residual activity (MAP3K10 (human)): 82.7%
residual activity (SRC (human)): 58.8%
residual activity (MAP2K2 (human)): 79.4%
residual activity (MAPK11 (human)): 100%
residual activity (LTK (human)): 83.9%
residual activity (DDR2 (human)): 94.3%
residual activity (CAMK1 (human)): 90.9%
residual activity (MAP2K1 (human)): 88.7%
residual activity (MUSK (human)): 95.4%
residual activity (CSNK1E (human)): 109%
residual activity (ALK (human)): 96.7%
residual activity (TSSK1B (human)): 65.3%
residual activity (RPS6KB1 (human)): 108%
residual activity (PLK2 (human)): 94.9%
residual activity (PTK2B (human)): 100%
residual activity [1]: 96%
residual activity (OXSR1 (human)): 102%
residual activity (HIPK1 (human)): 109%
residual activity (PRKD3 (human)): 88.5%
residual activity (ADRBK1 (human)): 78.5%
residual activity (STK4 (human)): 82.2%
residual activity (CSNK1G1 (human)): 93.3%
residual activity (PAK3 (human)): 106%
residual activity (IKBKE (human)): 100%
residual activity (MAP3K8 (human)): 98.2%
residual activity (IRAK4 (human)): 163%
residual activity (ROCK2 (human)): 97.2%
residual activity (ROCK1 (human)): 99.9%
residual activity (CHEK1 (human)): 93.1%
residual activity (CDK4 CCND1 (human)): 60.4%
residual activity (SIK2 (human)): 98.4%
residual activity (CLK2 (human)): 85.3%
residual activity (BLK (human)): 96.7%
residual activity (MAP3K14 (human)): 105%
residual activity (BRSK2 (human)): 90.8%
